Measured values published in PMC10265003 (Royal Society Open Science, 2023).
Like-named read-outs stand apart in the source and are kept apart here. Positions of bridges follow the written chain, without caps; N, C: chain ends. Non-standard residues stand in square brackets, D forms with d. Residues, ends and D or L forms follow the SMILES beside them. Chains are numbered I, II in the order given. 1Nal = N[C@@H](Cc1cccc2ccccc12)C(=O)O; hPhe = N[C@@H](CCc1ccccc1)C(=O)O; Ahx = NCCCCCC(=O)O

Columns and labels:
[1] = system: CD1 mice; assay: Peptide toxicity in vivo model (Irwin test, survival); details: for observed signs after ip administration (Irwin test): ip 70 mg kg^−1; for survival (%) sc: single sc dose 70 mg kg^−1, n = 3
Description: Experiment 1. CD1 mice male (eight weeks old, weighing 33–35 g) were housed in groups of six animals per cage for each peptide ^26[F] and ^26[1-Nal]; three mice were inoculated by intraperitoneal via ip, and three mice were inoculated by subcutaneous via sc. Mice inoculated via ip or sc with saline solution were used as control. The peptide was dissolved in saline solution (7 mg ml^−1) and the mice were inoculated only one time with 0.33–0.35 ml (dosage 70 mg kg^−1) via ip or sc. Experiment 2. CD1 mice female (n = 4, eight weeks old, weighing 33–35 g) were inoculated only one time with peptide ^26[F] (dosage 140 mg kg^−1) or ^26[1-Nal] (8.8 to 70 mg kg^−1).
To determine the toxicity of peptides ^26[F] and ^26[1-Nal] in vivo model, a preliminary study was carried out in CD1 male mice. The Irwin test was used to evaluate in qualitative manner the effect of peptide administration over motor functions, behaviour, physiology and pharmacological safety in rodents. This test is used as a first approach to study of the adverse effects generated by a pharmaceutical treatment in an in vivo model in preclinical test.

[2] = system: human erythrocytes; format: cell-based
Description: Haemolysis assays were performed in accordance with Cárdenas et al.. The blood was donated by healthy volunteers with blood type O^+. First, 5 ml of peripheral blood in EDTA was centrifuged at 500 r.p.m. for 15 min, and the erythrocytes were separated and washed three times with 0.9% saline solution. Then 100 µl of peptide solution (final concentrations of 200 at 6.2 µg ml^−1) was mixed with 100 µl of erythrocytes (2% haematocrit) and incubated at 37°C for 2 h. It was then centrifuged at 2500 r.p.m. for 5 min and the absorbance of the supernatant was measured at 450 nm. Two controls were used; positive control: distilled water, and negative control: saline solution 0.9%.

[3] = system: MCF-7 breast cancer line; format: cell-based, human; details: 2 h
Description: (§1) The MTT assay was performed in accordance with previous reports. Briefly, the cells were seeded with a complete medium in 96-well plates at a rate of 10 000 cells and 100 µl per well, and adhesion to the plates was allowed for 24 h. Later, the complete medium was removed, and an incomplete medium was added for synchronization for another 24 h. The cells were then incubated at 37°C for 2 h with 100 µl of peptide at the evaluated concentrations (200, 100, 50, 25, 12.5 and 6.25 µg ml^−1). Next, the peptide was removed from the well and 100 µl of incomplete medium with 10% MTT was added and incubated for 4 h. The medium was replaced with 100 µl of isopropanol, and after 30 min of incubation at 37°C, the absorbance was measured at 575 nm. As a negative control, an incomplete culture medium with 10% MTT was used, and as a positive control, cells without MTT treatment were used. The IC50 value was determined from figure 1 (peptide concentration versus per cent cell viability) using a nonlinear regression model with variable slope and GraphPad Prism 9 statistical analysis software.

[4] = molecular target: trypsin (Sus scrofa, UniProt P00761)
Chain of trypsin (P00761 9-231): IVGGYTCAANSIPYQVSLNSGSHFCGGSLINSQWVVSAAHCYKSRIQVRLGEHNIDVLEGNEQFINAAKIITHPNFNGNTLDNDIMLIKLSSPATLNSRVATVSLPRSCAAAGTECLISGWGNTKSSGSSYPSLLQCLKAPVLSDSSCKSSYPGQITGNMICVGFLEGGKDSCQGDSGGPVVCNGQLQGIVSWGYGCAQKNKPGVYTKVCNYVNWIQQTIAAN
Description: Trypsin (20 μg) was dissolved in 450 µl of the buffer supplied by the manufacturer, and 50 µl was added to each peptide solution, maintaining a protease : peptide ratio of 1 : 100 (w/w). The samples were incubated at 37°C for 24 h. Aliquots were taken at 0, 5, 10, 15 and 20 min, the enzymatic reaction was stopped by adding 1 M HCl, and the mixture was analysed via RP-HPLC and LC-MS. Bovine serum albumin (BSA) and bovine lactoferrin (bLF) were used as the positive control, and the negative control was the peptide in buffer solution without trypsin.

[5] = molecular target: pepsin (Sus scrofa, UniProt P00791); details: pH 2
Chain of pepsin (P00791 60-385): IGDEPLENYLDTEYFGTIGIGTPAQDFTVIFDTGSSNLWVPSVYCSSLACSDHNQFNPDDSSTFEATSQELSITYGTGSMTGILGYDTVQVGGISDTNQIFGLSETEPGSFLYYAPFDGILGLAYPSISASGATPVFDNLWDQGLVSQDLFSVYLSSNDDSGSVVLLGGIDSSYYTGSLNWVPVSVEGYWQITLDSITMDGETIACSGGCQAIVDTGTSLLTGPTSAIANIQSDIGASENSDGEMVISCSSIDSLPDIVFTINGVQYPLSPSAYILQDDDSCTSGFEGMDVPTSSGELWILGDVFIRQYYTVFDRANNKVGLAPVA
Description: Pepsin was dissolved in 0.010 M HCl (pH 2.0). An aliquot of 50 µl was added to each peptide solution in a 1 : 100 (w/w) ratio. The peptides were dissolved in H2O-TFA 0.05% (v/v). This was incubated at 37°C for 3 h, aliquots were taken at 0 and 3 h, and the samples were heated for 5 min and then cooled at 4°C for the thermal inactivation of pepsin and characterized via HPLC and LC-MS.

[6] = system: human primary fibroblasts; format: cell-based; details: for IC50 fibroblasts: 2 h
From the text: Rink amide resin, Fmoc-Arg(Pbf)-OH, Fmoc-Trp(Boc)-OH, Fmoc-Gln(Trt)-OH, Fmoc-Phe-OH, Fmoc-Lys(Boc)-OH, Fmoc-Leu-OH, Fmoc-Gly-OH, Fmoc-6-Ahx-OH, Fmoc-Lys(Fmoc)-OH, Triton-X, piperidine, N,N-dimethylformamide (DMF), dichloromethane (DCM), dicyclohexylcarbodiimide (DCC), 1-hydroxy-6-chloro-benzotriazole (6-Cl-HOBt), ninhydrin, potassium cyanide (KCN), ethanol, pyridine, phenol, trifluoroacetic acid (TFA), ethyl ether, triisopropylsilane (TIS), ethanedithiol (EDT), acetonitrile (ACN), methanol (MeOH) and solid phase extraction columns Supelco, Trypsin-EDTA solution and pepsin 2500 units mg^−1 were purchased from Sigma-Aldrich (St Louis, MO, USA). The non-natural amino acids diphenylalanine, 1-naphthyl-phenylalanine, 4-benzoyl-phenylalanine, homophenylalanine (hF), 4-(Fmoc-amino) benzoic acid (4-Abz) and 2-(Fmoc-amino) benzoic acid (2-Abz) were obtained from AAPPTec (Louisville, KY, USA). The cell lines MCF-7, HeLa, HEK-293 were purchased from ATCC (Manassas, VA). The primary cell culture of fibroblasts was obtained from the foreskin by the Laboratory of Cellular Physiology of the National University of Colombia, and the fibroblasts were cultured and frozen. Some vials were thawed and cultured for up to seven passes, since no transformation/immortalization was done. Annexin V and Alexa Fluor 488 conjugate was purchased from Invitrogen (Eugene, Oregon). The DMEM culture medium and trypsin were obtained from Sigma-Aldrich (St Louis, MO, USA). Bovine fetal serum was purchased from Gibco (Waltham, MA, USA). Calcium assay kit and Fluorescein CaspGLOW Active Caspase-8 or Caspase-9 Staining Kit were obtained for BD Biosciences (San Diego, CA, USA) and Invitrogen Thermo Fisher Scientific (Waltham, MA, USA), respectively.
as §1, with “The cells were then incubated at 37°C for 2 h with 100 µl of peptide at the evaluated concentrations (200, 100, 50, 25, 12.5 and 6.25 µg ml^−1).” left out

[7] = system: HeLa human cervical cancer cell line; format: cell-based; details: 2 h
Description: as §1

[8] = system: HEK-293 human kidney cell line; format: cell-based; details: for IC50 HEK-293: 2 h; for selectivity index IC50 HEK-293/IC50 MCF-7 / selectivity index IC50 HEK-293/IC50 HeLa: ratio of IC50 values; for selectivity index IC50 HEK-293/IC50 HeLa: in brackets
Description: as §1, with “The cells were then incubated at 37°C for 2 h with 100 µl of peptide at the evaluated concentrations (200, 100, 50, 25, 12.5 and 6.25 µg ml^−1).” left out

[9] = experiment 1, male CD1 mice, single ip dose 70 mg kg^−1, n = 3, one week of observation
[10] = ratio of IC50 values, in brackets

| SMILES | observed signs after ip administration (Irwin test) ([1]; experiment 1, male CD1 mice) | survival (%) ip [1, 9] [%] | survival (%) sc ([1]; experiment 1, male CD1 mice) [%] | IC50 erythrocytes ([2]; 2 h) | selectivity index IC50 erythrocytes/IC50 MCF-7 ([2]; ratio of IC50 values) | selectivity index IC50 erythrocytes/IC50 HeLa [2, 10] | IC50 [3] [µM] | IC50 MCF-7 [3] | proteolytic degradation by trypsin, 10 min [4] | proteolytic degradation by pepsin [5] | IC50 fibroblasts [6] | selectivity index IC50 fibroblasts/IC50 MCF-7 ([6]; ratio of IC50 values) | selectivity index IC50 fibroblasts/IC50 HeLa [6, 10] | IC50 HeLa [7] | IC50 HEK-293 [8] | selectivity index IC50 HEK-293/IC50 MCF-7 [8] | selectivity index IC50 HEK-293/IC50 HeLa [8] | further results |
| --- | --- | --- | --- | --- | --- | --- | --- | --- | --- | --- | --- | --- | --- | --- | --- | --- | --- | --- |
| CC(C)C[C@H](NC(=O)[C@H](CCCCN)NC(=O)[C@H](CCCCN)NC(=O)[C@H](Cc1cccc2ccccc12)NC(=O)[C@H](CCCNC(=N)N)NC(=O)[C@H](Cc1c[nH]c2ccccc12)NC(=O)[C@H](CCC(N)=O)NC(=O)[C@H](Cc1c[nH]c2ccccc12)NC(=O)[C@H](CCCNC(=N)N)NC(=O)[C@@H](N)CCCNC(=N)N)C(=O)NCC(=O)NCCCC[C@H](NC(=O)CNC(=O)[C@H](CC(C)C)NC(=O)[C@H](CCCCN)NC(=O)[C@H](CCCCN)NC(=O)[C@H](Cc1cccc2ccccc12)NC(=O)[C@H](CCCNC(=N)N)NC(=O)[C@H](Cc1c[nH]c2ccccc12)NC(=O)[C@H](CCC(N)=O)NC(=O)[C@H](Cc1c[nH]c2ccccc12)NC(=O)[C@H](CCCNC(=N)N)NC(=O)[C@@H](N)CCCNC(=N)N)C(=O)NCCCCCC(N)=O [^26[1-Nal], (RRWQWR-1-Nal-KKLG)2-K-Ahx] (I: H-RRWQWR[1Nal]KKLGK[Ahx]-NH2 / II: H-RRWQWR[1Nal]KKLG; amide I:12-II:C) | motor function decreased 30 min after peptide administration and abdominal contortions were observed | 33 | 100 | >200(>58) µg mL^−1 | > 4.1 | > 3.6 | 14 | 48(14) µg mL^−1 | less degradation, with the majority being intact dimeric peptide | unaffected | 30(9) µg mL^−1 | 0.6 | 0.5 | 55(16) µg mL^−1 | 86(25) µg mL^−1 | 1.8 | 1.5 | survival (%) ip ([1]; experiment 2, female CD1 mice, single ip dose 8.8 mg kg^−1, n = 3): 100%; survival (%) ip ([1]; experiment 2, female CD1 mice, single ip dose 17.5 mg kg^−1, n = 3): 100%; survival (%) ip ([1]; experiment 2, female CD1 mice, single ip dose 35.0 mg kg^−1, n = 3): 100%; survival (%) ip ([1]; experiment 2, female CD1 mice, single ip dose 70.0 mg kg^−1, n = 3): 100%; proteolytic degradation by trypsin, 3 h [4]: three main species, with tR = 3.7, 5.4 min and unaffected peptide tR = 6.4 min |
| CC(C)C[C@H](NC(=O)[C@H](CCCCN)NC(=O)[C@H](CCCCN)NC(=O)[C@H](Cc1ccccc1)NC(=O)[C@H](CCCNC(=N)N)NC(=O)[C@H](Cc1c[nH]c2ccccc12)NC(=O)[C@H](CCC(N)=O)NC(=O)[C@H](Cc1c[nH]c2ccccc12)NC(=O)[C@H](CCCNC(=N)N)NC(=O)[C@@H](N)CCCNC(=N)N)C(=O)NCC(=O)NCCCC[C@H](NC(=O)CNC(=O)[C@H](CC(C)C)NC(=O)[C@H](CCCCN)NC(=O)[C@H](CCCCN)NC(=O)[C@H](Cc1ccccc1)NC(=O)[C@H](CCCNC(=N)N)NC(=O)[C@H](Cc1c[nH]c2ccccc12)NC(=O)[C@H](CCC(N)=O)NC(=O)[C@H](Cc1c[nH]c2ccccc12)NC(=O)[C@H](CCCNC(=N)N)NC(=O)[C@@H](N)CCCNC(=N)N)C(=O)NCCCCCC(N)=O [^26[F], (RRWQWR-F-KKLG)2-K-Ahx] (I: H-RRWQWRFKKLGK[Ahx]-NH2 / II: H-RRWQWRFKKLG; amide I:12-II:C) | motor function decreased 30 min after peptide administration and abdominal contortions were observed | 100 | 100 | >200(>58) µg mL^−1 | > 2.5 | > 8.3 | 23 | 79(23) µg mL^−1 | disappeared completely | degraded into two fragments | 121(35) µg mL^−1 | 1.5 | 5.0 | 24(7) µg mL^−1 | 203(59) µg mL^−1 | 2.6 | 8.4 | survival (%) ip ([1]; experiment 2, female CD1 mice, single ip dose 140.0 mg kg^−1, n = 4): 0%; observed signs after ip administration ([1]; female mice, ip 140 mg kg^−1, after 30 min of treatment): decreased motor function, abdominal contractions, excess irrigation, marked ataxia and loss of coordination; proteolytic degradation by trypsin, 5 min [4]: two fragments were also generated |
| CC(C)C[C@H](NC(=O)[C@H](CCCCN)NC(=O)[C@H](CCCCN)NC(=O)[C@H](CCc1ccccc1)NC(=O)[C@H](CCCNC(=N)N)NC(=O)[C@H](Cc1c[nH]c2ccccc12)NC(=O)[C@H](CCC(N)=O)NC(=O)[C@H](Cc1c[nH]c2ccccc12)NC(=O)[C@H](CCCNC(=N)N)NC(=O)[C@@H](N)CCCNC(=N)N)C(=O)NCC(=O)NCCCC[C@H](NC(=O)CNC(=O)[C@H](CC(C)C)NC(=O)[C@H](CCCCN)NC(=O)[C@H](CCCCN)NC(=O)[C@H](CCc1ccccc1)NC(=O)[C@H](CCCNC(=N)N)NC(=O)[C@H](Cc1c[nH]c2ccccc12)NC(=O)[C@H](CCC(N)=O)NC(=O)[C@H](Cc1c[nH]c2ccccc12)NC(=O)[C@H](CCCNC(=N)N)NC(=O)[C@@H](N)CCCNC(=N)N)C(=O)NCCCCCC(N)=O [^26[hF], (RRWQWR-hF-KKLG)2-K-Ahx] (I: H-RRWQWR[hPhe]KKLGK[Ahx]-NH2 / II: H-RRWQWR[hPhe]KKLG; amide I:12-II:C) |  |  |  | >200(>59) µg mL^−1 |  |  | 18 | 60(18) µg mL^−1 | two fragments were also generated | unaffected | 63(19) µg mL^−1 |  |  | 53(16) µg mL^−1 | 134(40) µg mL^−1 |  |  | selectivity index IC50 erythrocytes/IC50 HeLa ([2]; 2 h): > 3.7; selectivity index IC50 erythrocytes/IC50 MCF-7 ([2]; 2 h): > 3.3; selectivity index IC50 fibroblasts/IC50 HeLa [6]: 1.2; selectivity index IC50 fibroblasts/IC50 MCF-7 [6]: 1.0 |
